The numbers were not newly measured in US9526741B2, “Chemosensory receptor ligand-based therapies” (NaZura BioHealth, Inc., priority 2009, dated 2016), which cites them from elsewhere.

This data set concerns GLP-1. As to conditions: humans.

Turning to `OCCN1C[C@H](O)[C@@H](O)[C@H](O)[C@H]1CO` [miglitol], the “postprandial GLP-1 levels” value is “increase”.
